Measured values: ChEMBL document CHEMBL3813606, “Synthesis and skin gene analysis of 4'-acetoxy-resveratrol (4AR), therapeutic potential for dermal applications” (Bioorg Med Chem Lett, 2016)

Legend:
Zone of skin [1] = test: Toxicity in human epidermal full thickness skin cultures assessed as intact and healthy stratum corneum at 1 % after 24 hrs by hematoxylin/eosin staining based assay
Zone of skin [2] = test: Toxicity in human epidermal full thickness skin cultures assessed as intact and healthy keratinocytes at 1 % after 24 hrs by hematoxylin/eosin staining based assay
Zone of skin [3] = test: Toxicity in human epidermal full thickness skin cultures assessed as intact and healthy fibroblasts at 1 % after 24 hrs by hematoxylin/eosin staining based assay
NHDF = test: Upregulation of SIRT-1 gene expression in NHDF by real time RT-PCR analysis relative to control; type: functional, Homo sapiens
Zone of skin [4] = test: Upregulation of SIRT-1 gene expression in human epidermal full thickness skin cultures at 1 % after 24 hrs by real time PCR analysis relative to control; type: functional
Zone of skin [5] = test: Upregulation of procollagen type III gene expression in human epidermal full thickness skin cultures at 1 % after 24 hrs by real time PCR analysis relative to control; type: functional
Zone of skin [6] = test: Upregulation of type IV collagen alpha 1 gene expression in human epidermal full thickness skin cultures at 1 % after 24 hrs by real time PCR analysis relative to control; type: functional
Zone of skin [7] = test: Upregulation of type IV collagen alpha 2 gene expression in human epidermal full thickness skin cultures at 1 % after 24 hrs by real time PCR analysis relative to control; type: functional
Zone of skin [8] = test: Upregulation of elastin gene expression in human epidermal full thickness skin cultures at 1 % after 24 hrs by real time PCR analysis relative to control; type: functional
Zone of skin [9] = test: Upregulation of TIMP 1 gene expression in human epidermal full thickness skin cultures at 1 % after 24 hrs by real time PCR analysis relative to control; type: functional
Zone of skin [10] = test: Upregulation of TIMP 2 gene expression in human epidermal full thickness skin cultures at 1 % after 24 hrs by real time PCR analysis relative to control; type: functional
Zone of skin [11] = test: Upregulation of catalase gene expression in human epidermal full thickness skin cultures at 1 % after 24 hrs by qPCR analysis relative to control; type: functional
Zone of skin [12] = test: Upregulation of LOX gene expression in human epidermal full thickness skin cultures at 1 % after 24 hrs by qPCR analysis relative to control; type: functional
Zone of skin [13] = test: Upregulation of SOD 1 gene expression in human epidermal full thickness skin cultures at 1 % after 24 hrs by qPCR analysis relative to control; type: functional
Zone of skin [14] = test: Upregulation of SOD 2 gene expression in human epidermal full thickness skin cultures at 1 % after 24 hrs by qPCR analysis relative to control; type: functional
Zone of skin [15] = test: Upregulation of MT1H gene expression in human epidermal full thickness skin cultures at 1 % after 24 hrs by qPCR analysis relative to control; type: functional
Zone of skin [16] = test: Upregulation of MT2A gene expression in human epidermal full thickness skin cultures at 1 % after 24 hrs by qPCR analysis relative to control; type: functional
Zone of skin [17] = test: Upregulation of FBN 1 gene expression in human epidermal full thickness skin cultures at 1 % after 24 hrs by qPCR analysis relative to control; type: functional
Zone of skin [18] = test: Upregulation of LAMB 1 gene expression in human epidermal full thickness skin cultures at 1 % after 24 hrs by qPCR analysis relative to control; type: functional
Zone of skin [19] = test: Upregulation of PCNA gene expression in human epidermal full thickness skin cultures at 1 % after 24 hrs by qPCR analysis relative to control; type: functional
Zone of skin [20] = test: Upregulation of HBEGF gene expression in human epidermal full thickness skin cultures at 1 % after 24 hrs by qPCR analysis relative to control; type: functional
Zone of skin [21] = test: Upregulation of IGF 1 gene expression in human epidermal full thickness skin cultures at 1 % after 24 hrs by qPCR analysis relative to control; type: functional
Zone of skin [22] = test: Upregulation of NGF gene expression in human epidermal full thickness skin cultures at 1 % after 24 hrs by qPCR analysis relative to control; type: functional
Zone of skin [23] = test: Upregulation of TGF gene expression in human epidermal full thickness skin cultures at 1 % after 24 hrs by qPCR analysis relative to control; type: functional
[24] = Lipophilicity, log P of the compound; settings: octanol/water

Question: With `CC(=O)Oc1ccc(/C=C/c2cc(O)cc(O)c2)cc1` as the compound, how does the Activity (Zone of skin [1]) read?
Answer: Non-toxic

Question: What about the Activity (Zone of skin [2]) of the same compound?
Answer: Non-toxic

Question: What about the Activity (Zone of skin [3]) of the same compound?
Answer: Non-toxic

Question: What about the “fold change (FC)” value (NHDF) of the same compound?
Answer: >3.3

Question: What about the Activity (Zone of skin [4]) of the same compound?
Answer: 335%

Question: And the Activity (Zone of skin [5])?
Answer: 220%

Question: And the Activity (Zone of skin [6])?
Answer: 170%

Question: And the Activity (Zone of skin [7])?
Answer: 180%

Question: And the Activity (Zone of skin [8])?
Answer: 280%

Question: What about the Activity (Zone of skin [9]) of the same compound?
Answer: 250%

Question: And the Activity (Zone of skin [10])?
Answer: 130%

Question: What about the Activity (Zone of skin [11]) of the same compound?
Answer: 160%

Question: What about the Activity (Zone of skin [12]) of the same compound?
Answer: 190%

Question: What about the Activity (Zone of skin [13]) of the same compound?
Answer: 160%

Question: What about the Activity (Zone of skin [14]) of the same compound?
Answer: 170%

Question: What about the Activity (Zone of skin [15]) of the same compound?
Answer: 6400%

Question: What about the Activity (Zone of skin [16]) of the same compound?
Answer: 340%

Question: And the Activity (Zone of skin [17])?
Answer: 130%

Question: And the Activity (Zone of skin [18])?
Answer: 140%

Question: And the Activity (Zone of skin [19])?
Answer: 540%

Question: And the Activity (Zone of skin [20])?
Answer: 190%

Question: What about the Activity (Zone of skin [21]) of the same compound?
Answer: 264%

Question: And the Activity (Zone of skin [22])?
Answer: 672%

Question: What about the Activity (Zone of skin [23]) of the same compound?
Answer: 200%

Question: What does the source list for `Oc1ccc(/C=C/c2cc(O)cc(O)c2)cc1` [RESVERATROL]?
Answer: logP [24]: 3.1; fold change (FC) (Zone of skin [4]): 1.8; Activity (Zone of skin [8]): 180%
